pEC50, pIC50: −log10 of the molar value.
Experiments:
[1] = system: U-87 MG human glioblastoma; experiment: U87 MG CCK-8 proliferation assay; format: cell-based; conditions: Homo sapiens, U-87 MG, 72 h, U-87 MG cells, read-out: U87MG CCK-8
In short: (§1)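 3-fold dilution series, 20 μM–1.02 nM; ATCC culture conditions; CCK-8 absorbance read-out; % inhibition = 100 − (D−B)/(S−B)×100, S = DMSO cells, B = medium + DMSO, no cells.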

[2] = system: MV-4-11 human acute myeloid leukemia; experiment: MV-4-11 CCK-8 proliferation assay; format: cell-based; conditions: Homo sapiens, MV4-11; MV-4-11 cells, 72 hr
In short: as §1

ERBB2 = ERBB2 (HER2) flow cytometry protein degradation assay in BT-474 cells; format: cell-based, human; conditions: DC50, BT-474 cells, 24 hr
Experimental: To analyze total ERBB2 expression by flow cytometry, cells were detached with trypsin, washed, counted and treated with 10 μl/10^6 cells PE-conjugated, anti-ERBB2 monoclonal antibody (R&D Systems, #FAB1129P) for 30 min at 25° C. in dark. Cells were then washed, resuspended in 200 μl 1% paraformaldehyde and analyzed by flow cytometry.
% Inhibition=100−(D−B)/(S−B)*100%. • S: Fluorescence intensity of cells with antibody • D: Fluorescence intensity of compound-treated cells with antibody • B: Fluorescence intensity of cells without antibody

HSP90α protein = target: T1, HSP90α protein (Homo sapiens, UniProt P07900); experiment: HSP90α-binding FP (BODIPY) assay; conditions: FP competition with BODIPY-labeled RNK04010
T1 construct: purchased BPS Bioscience #50298
In short: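 Fluorescence polarization measured competition with N-terminal human HSP90α, using either FITC-geldanamycin or BODIPY-labelled triazolone RNK04010 as tracer (5 nM final each). Compounds were tested in 2.5-fold dilutions from 20 μM to 5.2 nM, with incubation at 25 °C for 120 min (FITC) or 300 min (BODIPY).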

Row | Structure (SMILES) | pEC50 [1] | pEC50 [2] | pIC50 (HSP90α protein) | ERBB2 degradation (ERBB2)
1 | CCOc1cc(N2CCC(C(=O)NCc3ccc(-n4c(O)nnc4-c4cc(CC)c(O)cc4O)cc3C(F)(F)F)CC2)ccc1Nc1ncc2c(n1)N(C)c1ccccc1C(=O)N2C [Compound 031, 1-(4-((5,11-dimethyl-6-oxo-6,11-dihydro-5H-benzo[e]pyrimido[5,4-b][1,4]diazepin-2-yl)amino)-3-ethoxyphenyl)-N-(4-(3-(5-ethyl-2,4-dihydroxyphenyl)-5-hydroxy-4H-1,2,4-triazol-4-yl)-2-(trifluoromethyl)benzyl)piperidine-4-carboxamide] | < 6.00 | < 6.00 | < 6.00 | C (DC50 > 1000 nM)
2 | CCOc1cc(N2CCC(C(=O)N3CCC(N4CCN(Cc5ccc(-n6c(O)nnc6-c6cc(C(C)C)c(O)cc6O)cc5C(F)(F)F)CC4)CC3)CC2)ccc1Nc1ncc2c(n1)N(C)c1ccccc1C(=O)N2C [Compound 038, 2-((4-(4-(4-(4-(4-(3-(2,4-dihydroxy-5-isopropylphenyl)-5-hydroxy-4H-1,2,4-triazol-4-yl)-2-(trifluoromethyl)benzyl)piperazin-1-yl)piperidine-1-carbonyl)piperidin-1-yl)-2-ethoxyphenyl)amino)-5,11-dimethyl-5,11-dihydro-6H-benzo[e]pyrimido[5,4-b][1,4]diazepin-6-one] | < 6.00 | > 7.00 | 6.00 to 7.00 | B (DC50 = 100-1000 nM)

More lines, main results first:

Row | pEC50 [1] | pEC50 [2] | pIC50 (HSP90α protein) | Structure (SMILES) | ERBB2 degradation (ERBB2)
3 | < 6.00 | 6.00 to 7.00 | 6.00 to 7.00 | CCOc1cc(N2CCC(C(=O)NCc3ccc(-n4c(O)nnc4-c4cc(CC)c(O)cc4O)cc3)CC2)ccc1Nc1ncc2c(n1)N(C)c1ccccc1C(=O)N2C [Compound 028, 1-(4-((5,11-dimethyl-6-oxo-6,11-dihydro-5H-benzo[e]pyrimido[5,4-b][1,4]diazepin-2-yl)amino)-3-ethoxyphenyl)-N-(4-(3-(5-ethyl-2,4-dihydroxyphenyl)-5-hydroxy-4H-1,2,4-triazol-4-yl)benzyl)piperidine-4-carboxamide] | B (DC50 = 100-1000 nM)
4 | 6.00 to 7.00 | > 7.00 | 6.00 to 7.00 | CCOc1cc(N2CCC(C(=O)NCCc3ccc(CN4CCC(Cc5ccc(-n6c(C(=O)NCC(F)(F)F)nnc6-c6cc(C(C)C)c(O)cc6O)cc5)CC4)cc3)CC2)ccc1Nc1ncc2c(n1)N(C)c1ccccc1C(=O)N2C [Compound 035, N-(4-((4-(4-(3-(2,4-dihydroxy-5-isopropylphenyl)-5-((2,2,2-trifluoroethyl)carbamoyl)-4H-1,2,4-triazol-4-yl)benzyl)piperidin-1-yl)methyl)phenethyl)-1-(4-((5,11-dimethyl-6-oxo-6,11-dihydro-5H-benzo[e]pyrimido[5,4-b][1,4]diazepin-2-yl)amino)-3-ethoxyphenyl)piperidine-4-carboxamide] | B (DC50 = 100-1000 nM)
5 | 6.00 to 7.00 | > 7.00 |  | CCOc1cc(N2CCC(C(=O)NCc3ccc(CN4CCC(Cc5ccc(-n6c(C(=O)NC(C)C)nnc6-c6cc(C(C)C)c(O)cc6O)cc5)CC4)cc3)CC2)ccc1Nc1ncc2c(n1)N(C)c1ccccc1C(=O)N2C [Compound 056, N-(4-((4-(4-(3-(2,4-dihydroxy-5-isopropylphenyl)-5-(isopropylcarbamoyl)-4H-1,2,4-triazol-4-yl)benzyl)piperidin-1-yl)methyl)benzyl)-1-(4-((5,11-dimethyl-6-oxo-6,11-dihydro-5H-benzo[e]pyrimido[5,4-b][1,4]diazepin-2-yl)amino)-3-ethoxyphenyl)piperidine-4-carboxamide] | B (DC50 = 100-1000 nM)

Reference: patent US20240124460A1, “METHODS AND COMPOSITIONS FOR TARGETED PROTEIN DEGRADATION” (Ranok Therapeutics (Hangzhou) Co. Ltd., priority 2020, published 2024)
